Source: patent US5773646A, “Meta-substituted phenylene derivatives” (G. D. Searle & Co., priority 1997, dated 1998)
Structures can show the parent of a compound that is named as a salt.

Legend:
[1] = target: T1, Human fibrinogen receptor (αIIb β3) (Homo sapiens, UniProt P05106+P08514); assay: Purified IIb/IIIa receptor assay (solid phase receptor assay, biotinylated vitronectin competition); details: inhibition of 50% of the maximum binding of biotinylated vitronectin; 1 nM labeled ligand, 2 hours, room temperature, highest concentration of test compound 1.0×10^-4 M
T1 construct: Human fibrinogen receptor (αIIb β3) was purified from outdated platelets; from tissue; host or cells: outdated human platelets
Source text: PURIFIED IIb/IIIa RECEPTOR ASSAY Human fibrinogen receptor (αIIb β3) was purified from outdated platelets. (Pytela, R., Pierschbacher, […]., Suzuki, S., and […] acid adhesion receptors", Methods in Enzymology 144(1987):475-489.) Human vitronectin was purified from fresh frozen plasma as described in Yatohgo, T., Izumi, M., Kashiwagi, H., and Hayashi, M., "Novel purification of vitronectin from human plasma by heparin affinity chromatography," Cell Structure and Function 13(1988):281-292. Biotinylated human vitronectin was prepared by coupling NHS-biotin from Pierce Chemical Company (Rockford, Ill.) to purified vitronectin as previously described. (Charo, […]., Phillips, D. R., Hsu, M. A., Scarborough, R. M., "Inhibition of fibrinogen binding to GP IIb/IIIa by a GP IIIa peptide", J. Biol. Chem. 266(3)(1991):1415-1421.) Assay buffer, OPD substrate tablets, and RIA grade BSA were obtained from Sigma (St. Louis, Mo.). Anti-biotin antibody was obtained from Calbiochem (La Jolla, Calif.). Linbro microtiter plates were obtained from Flow Labs (McLean, Va.). ADP reagent was obtained from Sigma (St. Louis, Mo.). Solid Phase Receptor Assays This assay is essentially the same reported in […]., Bader, R., Byers-Ward, […]., Plow, E. F. and Ruggeri, Z. M., "Increased surface expression of the membrane glycoprotein IIb/IIIa complex induced by platelet activation: Relationships to the binding of fibrinogen and platelet aggregation", Blood 70(1987):475-483. The purified human fibrinogen receptor (αIIb β3) was diluted from stock solutions to 1.0 μg/mL in Tris-buffered saline containing 1.0 mM Ca^++, Mg^++, and Mn^++, pH 7.4 (TBS^+++). The diluted receptor was immediately transferred to Linbro microtiter plates at 100 μL/well (100 ng receptor/well). The plates were sealed and incubated overnight at 4° C. to allow the receptor to bind to the wells. All remaining steps were at room temperature. The assay plates were emptied and 200 μL of 1% RIA grade BSA in TBS^+++ (TBS^+++ /BSA) were added to block exposed plastic surfaces. Following a 2 hour incubation, the assay plates were washed with TBS^+++ using a 96 well plate washer. Logarithmic serial dilution of the test compound and controls were made starting at a stock concentration of 2 mM and using 2 nM biotinylated vitronectin in TBS^+++ /BSA as the diluent. This premixing of labeled ligand with test (or control) ligand, and subsequent transfer of 50 μL aliquots to the assay plate was carried out with a CETUS Propette robot; the final concentration of the labeled ligand was 1 nM and the highest concentration of test compound was 1.0×10^-4 M. The competition occurred for two hours after which all wells were washed with a plate washer as before. Affinity purified horseradish peroxidase labeled goat antibiotin antibody was diluted 1:3000 in TBS^+++ /BSA and 125 μL were added to each well. After 30 minutes, the plates were washed and incubated with […]/H2 O2 substrate in 100 mM/L citrate buffer, pH 5.0. The plate was read with a microtiter plate reader at a wavelength of 450 nm and when the maximum-binding control wells reached an absorbance of about 1.0, the final A450 were recorded for analysis. The data were analyzed using a macro written for use with the EXCELTM spreadsheet program. The mean, standard deviation, and %CV were determined for duplicate concentrations. The mean A450 values were normalized to the mean of four maximum-binding controls (no competitor added)(B-MAX). The normalized values were subjected to a four parameter curve fit algorithm, [Robard et al., Int.

[2] = target: T2, Human vitronectin receptor (αv β3) (Homo sapiens, UniProt P05106+P06756); assay: Vitronectin adhesion assay (solid phase receptor assay, biotinylated vitronectin competition); assay type: binding; details: inhibition of 50% of the maximum binding of biotinylated vitronectin; 1 nM labeled ligand, 2 hours, room temperature, highest concentration of test compound 1.0×10^-4 M; read-out: AvB3 IC50
T2 construct: Human vitronectin receptor(αv β3) was purified from human placenta; from tissue; host or cells: human placenta
Description: VITRONECTIN ADHESION ASSAY Human vitronectin receptor(αv β3) was purified from human placenta as previously described [Pytela et al., Methods in Enzymology, 144:475-489 (1987)). Human vitronectin was purified from fresh frozen plasma as previously described [Yatohgo et al., Cell Structure and Function, 13:281-292 (1988)]. Biotinylated human vitronectin was prepared by coupling NHS-biotin from Pierce Chemical Company (Rockford, Ill.) to purified vitronectin as previously described [Charo et al., J. Biol. Chem., 266(3):1415-1421 (1991)]. Assay buffer, OPD substrate tablets, and RIA grade BSA were obtained from Sigma (St. Louis, Mo.). Anti-biotin antibody was obtained from Calbiochem (La Jolla, Calif.). Linbro microtiter plates were obtained from Flow Labs (McLean, Va.). ADP reagent was obtained from Sigma (St. Louis, Mo.). Solid Phase Receptor Assays This assay was essentially the same as previously reported [Niiya et al., Blood, 70:475-483 (1987)]. The purified human vitronectin receptor (αv β3) was diluted from stock solutions to 1.0 μg/mL in Tris-buffered saline containing 1.0 mM Ca^++, Mg^++, and Mn^++, pH 7.4 (TBS^+++). The diluted receptor was immediately transferred to Linbro microtiter plates at 100 μL/well (100 ng receptor/well). The plates were sealed and incubated overnight at 4° C. to allow the receptor to bind to the wells. All remaining steps were at room temperature. The assay plates were emptied and 200 μL of 1% RIA grade BSA in TBS^+++ (TBS^+++ /BSA) were added to block exposed plastic surfaces. Following a 2 hour incubation, the assay plates were washed with TBS^+++ using a 96 well plate washer. Logarithmic serial dilution of the test compound and controls were made starting at a stock concentration of 2 mM and using 2 nM biotinylated vitronectin in TBS^+++ /BSA as the diluent. This premixing of labeled ligand with test (or control) ligand, and subsequent transfer of 50 μL aliquots to the assay plate was carried out with a CETUS Propette robot; the final concentration of the labeled ligand was 1 nM and the highest concentration of test compound was 1.0×10^-4 M. The competition occurred for two hours after which all wells were washed with a plate washer as before. Affinity purified horseradish peroxidase labeled goat antibiotin antibody was diluted 1:3000 in TBS^+++ /BSA and 125 μL were added to each well. After 30 minutes, the plates were washed and incubated with OPD/H2 O2 substrate in 100 mM/L Citrate buffer, pH 5.0. The plate was read with a microtiter plate reader at a wavelength of 450 nm and when the maximum-binding control wells reached an absorbance of about 1.0, the final A450 were recorded for analysis. The data were analyzed using a macro written for use with the EXCEL™ spreadsheet program. The mean, standard deviation, and %CV were determined for duplicate concentrations. The mean A450 values were normalized to the mean of four maximum-binding controls (no competitor added)(B-MAX). The normalized values were subjected to a four parameter curve fit algorithm [Rodbard et al., Int.

Compound	IC50 [1]	IC50 [2]
CCC(CC(=O)O)c1cccc(CNC(=O)c2cccc(NC(=N)N)c2)c1 (stereo not drawn) [Example 42, 3-([[[3-[(aminoiminomethyl)amino]phenyl]carbonyl]amino]methyl]-β-ethylbenzenepropanoic acid, trifluoroacetate salt]	0.472 µM	0.0117 µM
N=C(N)Nc1cccc(C(=O)NCCc2cccc(CC(=O)O)c2)c1 [Example 44, 3-[2-[[[3-[(aminoiminomethyl)amino]phenyl]carbonyl]amino]ethyl]benzeneacetic acid, monohydrate trifluoroacetate salt]	0.094 µM	3.21 µM
CC(=O)NC(Cc1cccc(CNC(=O)c2cccc(NC(=N)N)c2)c1)C(=O)O (stereo not shown) [Example 45, N-acetyl-3-[[[[3-[(aminoiminomethyl)amino]phenyl]carbonyl]amino]methyl)phenylalanine, bis(trifluoroacetate) salt]	1.37 µM	0.0723 µM
N=C(N)Nc1cccc(CC(=O)Nc2cccc(CCC(=O)O)c2)c1 [Example 46, 3-[[[3-[(aminoiminomethyl)amino]phenyl]acetyl]amino]benzenepropanoic acid, trifluoroacetate salt]	2.28 µM	2.44 µM
N=C(N)Nc1cccc(NC(=O)Nc2cccc(CCC(=O)O)c2)c1 [Example 51, 3-[[[[3-[(aminoiminomethyl)amino]phenyl]amino]carbonyl]amino]benzenepropanoic acid, trifluoroacetate salt]	10.7 µM	3.09 µM
N=C(N)Nc1cccc(NC(=O)Nc2cccc(OCC(=O)O)c2)c1 [Example 52, [3-[[[[3-[(aminoiminomethyl)amino]phenyl]amino]carbonyl]amino]phenoxy]acetic acid, trifluoroacetate salt]	39.7 µM	16.6 µM
N=C(N)Nc1cccc(NC(=O)NCc2cccc(CCC(=O)O)c2)c1 [Example 53, 3-[[[[[3-[(aminoiminomethyl)amino]phenyl]amino]carbonyl]amino]methyl]benzenepropanoic acid, trifluoroacetate salt]	2.64 µM	1.67 µM
CNC(=NC#N)Nc1cccc(C(=O)NCc2cccc(C(CC(=O)O)c3ccccc3)c2)c1 (stereo not drawn) [Example 55, 3-[[[[3-[[(cyanoimino)(methylamino)methyl]amino]phenyl]carbonyl]amino]methyl]-β-phenylbenzenepropanoic acid]	13.4 µM	0.108 µM
C[C@H](CC(=O)O)c1cccc(CNC(=O)c2cccc(NC(=N)N)c2)c1 [Example 56, 3-[[[[3-[(aminoiminomethyl)amino]phenyl]carbonyl]amino]methyl]-βR-methylbenzenepropanoic acid, trifluoroacetate salt hydrate]	1.31 µM	0.00688 µM

More lines, now with the values ahead:

IC50 [1]	IC50 [2]	Compound
2.26 µM	0.0116 µM	CC(CC(=O)O)c1cccc(CNC(=O)c2cccc(NC(=N)N)c2)c1 (stereo not drawn) [Example 40, 3-[[[[3-[(aminoiminomethyl)amino]phenyl]carbonyl]amino]methyl]-β-methylbenzenepropanoic acid, trifluoroacetate salt]
> 100 µM	11.3 µM	CCOC(=O)CC(CC)c1cccc(CNC(=O)c2cccc(NC(=N)N)c2)c1 (stereo not drawn) [Example 41, ethyl 3-[[[[3-[(aminoiminomethyl)amino]phenyl]carbonyl]amino]methyl)-β-ethylbenzenepropanoate, trifluoroacetate salt]
0.798 µM	0.00718 µM	CC(C)C(CC(=O)O)c1cccc(CNC(=O)c2cccc(NC(=N)N)c2)c1 (stereo not drawn) [Example 43, 3-[[[[3-[(aminoiminomethyl)amino]phenyl]carbonyl]amino]methyl]-β-(1-methylethyl) benzenepropanoic acid, trifluoroacetate salt]
> 100 µM	36.5 µM	COC(=O)Cc1cccc(CNC(=O)c2cccc(NC(=N)N)c2)c1 [Example 47, methyl 3-[[[[3-[(aminoiminomethyl)amino]phenyl]carbonyl]amino]methyl]benzeneacetate, trifluoroacetate salt]
12.7 µM	1.68 µM	N=C(N)Nc1cccc(C(=O)NCc2cccc(CC(=O)O)c2)c1 [Example 49, 3-[[[[3-[(aminoiminomethyl)amino]phenyl]carbonyl]amino]methyl]benzeneacetic acid, trifluoroacetate salt]
55.5 µM	> 100 µM	N=C(N)Nc1cccc(C(=O)Nc2cccc(CC(=O)O)c2)c1 [Example 50, 3-[[[3-[(aminoiminomethyl)amino]phenyl]carbonyl]amino]benzeneacetic acid, trifluoroacetate salt]
0.145 µM	0.0198 µM	N=C(N)Nc1cccc(C(=O)NCc2cccc(C(CC(=O)O)c3cc(Cl)cc(Cl)c3)c2)c1 (stereo not shown) [Example 54]
17.6 µM	0.189 µM	C[C@@H](CC(=O)O)c1cccc(CNC(=O)c2cccc(NC(=N)N)c2)c1 [Example 57, 3-[[[[3-[(aminoiminomethyl)amino]phenyl]carbonyl]amino]methyl]-βS-methylbenzenepropanoic acid]
